# Data taken from ChEMBL document CHEMBL5724914, “Linking interpersonal differences in gut microbiota composition and drug biotransformation activity” (2024).
# Columns and labels:
# [1] = (§1) The drug is tested on Z-030 corresponding to mouse gut metagenome with ENA study accession number: PRJEB37062 and ENA sample accession number: ERS12561829 for biotransformation under anaerobic condition. The drug concentrations were measured over 9 timepoints collected between 0 and 24 hours of incubation by liquid-chromatography-coupled mass spectrometry (LC–MS); conditions: 2 µM
# [2] = as §1, with “Z-029” for “Z-030”, “rat” for “mouse”, “ERS12561828” for “ERS12561829”; conditions: 2 µM
# [3] = as §1, with “Z-019” for “Z-030”, “rat” for “mouse”, “ERS12561818” for “ERS12561829”; conditions: 2 µM
# [4] = as §1, with “Z-012” for “Z-030”, “to” for “to mouse gut”, “ERS12561812” for “ERS12561829”; conditions: 2 µM
# [5] = as §1, with “WLS-310” for “Z-030”, “human” for “mouse”, “ERS12561785” for “ERS12561829”; conditions: 2 µM
# [6] = as §1, with “WLS-090” for “Z-030”, “human” for “mouse”, “ERS12561753” for “ERS12561829”; conditions: 2 µM
# [7] = as §1, with “WLS-069” for “Z-030”, “human” for “mouse”, “ERS12561748” for “ERS12561829”; conditions: 2 µM
# [8] = as §1, with “WLS-039” for “Z-030”, “human” for “mouse”, “ERS12561746” for “ERS12561829”; conditions: 2 µM
# [9] = human gut metagenome, 24 h, 2 µM
# [10] = human gut metagenome, 24 h, 2 µM; remark: listed apart in the source
# [11] = human gut metagenome, 24 h, 2 µM; remark: listed apart in the source
# [12] = human gut metagenome, 24 h, 2 µM; remark: listed apart in the source
# [13] = human gut metagenome, 24 h, 2 µM; remark: listed apart in the source
# [14] = human gut metagenome, 24 h, 2 µM; remark: listed apart in the source
# [15] = human gut metagenome, 24 h, 2 µM; remark: listed apart in the source
# [16] = human gut metagenome, 24 h, 2 µM; remark: listed apart in the source
# [17] = human gut metagenome, 24 h, 2 µM; remark: listed apart in the source
# [18] = human gut metagenome, 24 h, 2 µM; remark: listed apart in the source
# [19] = human gut metagenome, 24 h, 2 µM; remark: listed apart in the source
# [20] = human gut metagenome, 24 h, 2 µM; remark: listed apart in the source
# Also: call rule not given here.
Compound,Bacterial Biotransformation [1],Bacterial Biotransformation [2],Bacterial Biotransformation [3],Bacterial Biotransformation [4],Bacterial Biotransformation [5],Bacterial Biotransformation [6],Bacterial Biotransformation [7],Bacterial Biotransformation [8],Bacterial Biotransformation [9],Bacterial Biotransformation [10],Bacterial Biotransformation [11],Bacterial Biotransformation [12],Bacterial Biotransformation [13],Bacterial Biotransformation [14],Bacterial Biotransformation [15],Bacterial Biotransformation [16],Bacterial Biotransformation [17],Bacterial Biotransformation [18],Bacterial Biotransformation [19],Bacterial Biotransformation [20]
CCN(CC)C(=O)C1(c2ccccc2)CC1CN (stereo not drawn),Compound NOT metabolized,Compound NOT metabolized,Compound NOT metabolized,Compound NOT metabolized,Compound NOT metabolized,Compound NOT metabolized,Compound NOT metabolized,Compound NOT metabolized,Compound NOT metabolized,Compound NOT metabolized,Compound NOT metabolized,Compound NOT metabolized,Compound NOT metabolized,Compound NOT metabolized,Compound NOT metabolized,Compound NOT metabolized,Compound NOT metabolized,Compound NOT metabolized,Compound NOT metabolized,Compound NOT metabolized
COc1ccc(/C=C/C(=O)Nc2ccccc2C(=O)O)cc1OC,Compound NOT metabolized,Compound NOT metabolized,Compound NOT metabolized,Compound NOT metabolized,Compound metabolized,Compound NOT metabolized,Compound metabolized,Compound metabolized,Compound NOT metabolized,Compound NOT metabolized,Compound NOT metabolized,Compound NOT metabolized,Compound NOT metabolized,Compound NOT metabolized,Compound NOT metabolized,Compound NOT metabolized,Compound NOT metabolized,Compound metabolized,Compound NOT metabolized,Compound NOT metabolized
Nc1nc(NC2CC2)c2ncn([C@H]3C=C[C@@H](CO)C3)c2n1.Nc1nc(NC2CC2)c2ncn([C@H]3C=C[C@@H](CO)C3)c2n1.O=S(=O)(O)O [ABACAVIR SULFATE],Compound NOT metabolized,Compound NOT metabolized,Compound NOT metabolized,Compound NOT metabolized,Compound NOT metabolized,Compound metabolized,Compound metabolized,Compound NOT metabolized,Compound NOT metabolized,Compound metabolized,Compound metabolized,Compound metabolized,Compound NOT metabolized,Compound metabolized,Compound metabolized,Compound metabolized,Compound metabolized,Compound NOT metabolized,Compound metabolized,Compound metabolized
CCN(CC)CCNC(=O)c1ccc(NC(C)=O)cc1 [ACECAINIDE],Compound NOT metabolized,Compound NOT metabolized,Compound NOT metabolized,Compound NOT metabolized,Compound metabolized,Compound metabolized,Compound NOT metabolized,Compound NOT metabolized,Compound NOT metabolized,Compound NOT metabolized,Compound NOT metabolized,Compound NOT metabolized,Compound NOT metabolized,Compound NOT metabolized,Compound NOT metabolized,Compound metabolized,Compound NOT metabolized,Compound NOT metabolized,Compound NOT metabolized,Compound metabolized
CC(C)C[C@H]1C(=O)N2CCC[C@H]2[C@]2(O)O[C@](NC(=O)[C@@H]3C=C4c5cccc6[nH]c(Br)c(c56)C[C@H]4N(C)C3)(C(C)C)C(=O)N12.CS(=O)(=O)O [BROMOCRIPTINE MESYLATE],Compound metabolized,Compound metabolized,Compound metabolized,Compound metabolized,Compound metabolized,Compound metabolized,Compound metabolized,Compound metabolized,Compound metabolized,Compound metabolized,Compound metabolized,Compound metabolized,,Compound metabolized,Compound NOT metabolized,Compound NOT metabolized,Compound metabolized,Compound NOT metabolized,Compound NOT metabolized,Compound metabolized
Cc1cc2c(s1)Nc1ccccc1N=C2N1CCN(C)CC1 [OLANZAPINE],Compound NOT metabolized,Compound NOT metabolized,Compound NOT metabolized,Compound NOT metabolized,Compound NOT metabolized,,Compound NOT metabolized,Compound NOT metabolized,Compound NOT metabolized,Compound NOT metabolized,Compound NOT metabolized,Compound NOT metabolized,Compound NOT metabolized,Compound NOT metabolized,Compound NOT metabolized,Compound NOT metabolized,Compound NOT metabolized,Compound metabolized,,Compound metabolized
CCCCCNC(=N)N/N=C/c1c[nH]c2ccc(OC)cc12.O=C(O)/C=C\C(=O)O [TEGASEROD MALEATE],Compound NOT metabolized,Compound NOT metabolized,Compound NOT metabolized,Compound NOT metabolized,Compound NOT metabolized,Compound metabolized,Compound metabolized,Compound metabolized,Compound NOT metabolized,Compound NOT metabolized,Compound NOT metabolized,Compound metabolized,,,Compound NOT metabolized,Compound NOT metabolized,,Compound NOT metabolized,Compound NOT metabolized,
